Consider seven compounds from US20240246960A1 (adMare Therapeutics Society, priority 2021, published 2024).

For one experiment, the target named is T1, DNA-PK (Homo sapiens, UniProt P78527).
T1 construct: purchased Invitrogen PR9107A
Description: DNA-PK Assay for Biochemical Enzymatic Inhibition (ADP Glo Kinase assay). The note with it: Table 1. In short, it runs like this:
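Human DNA-PK (25 ng) preincubated 15 min with compounds (ten three-fold dilutions) in HEPES pH 7.5, MgCl2, KCl, calf thymus DNA buffer, then substrate 434.4 μM and ATP 64.4 μM (final) for 60 min at room temperature. ADP-Glo luminescence; percent inhibition fitted by four-parameter regression for IC50.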

The target in experiment [1] is T2, DNA-PK phosphorylation at Serine 2056 (Homo sapiens, UniProt P78527).
T2 construct: host or cells: FaDu
Kind of experiment: Cellular Assay for Inhibition of DNA-PK Phosphorylation at Serine 2056 (FaDu cells, neocarzinostatin, sandwich ELISA). In kind it is cell-based. The note with it: Table 1. The gist of the method: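 FaDu cells were pretreated with compound (0.3% DMSO) for 1 h, then exposed to neocarzinostatin at 1 μg/mL final for 2 h to induce DSBs. Protein-normalized lysates were assayed by MSD sandwich ELISA for total and pSer2056 DNA-PK. IC50 came from variable-slope fits of % inhibition relative to DMSO and NCS controls.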

In the case of `O=C(N[C@H]1CC[C@@H](Oc2nc(N3CCOCC3)cc3ncccc23)CC1)c1cc[nH]c1` [Compound 140, N-((1s,4s)-4-((7-morpholino-1,6-naphthyridin-5-yl)oxy)cyclohexyl)-1H-pyrrole-3-carboxamide], the IC50 at DNA-PK was less than 0.5 nM; in experiment [1], less than 100 nM.

With `O=C(N[C@H]1CC[C@@H](Oc2nc(N3CCOCC3)cc3ncccc23)CC1)c1ncco1` [Compound 142, N-((1s,4s)-4-((7-morpholino-1,6-naphthyridin-5-yl)oxy)cyclohexyl)oxazole-2-carboxamide], the values for the IC50 (on DNA-PK; in experiment [1]) were 0.5 to 1 nM and less than 100 nM, respectively.

Consider `O=C(N[C@H]1CC[C@@H](Oc2nc(N3CCOCC3)cc3ncccc23)CC1)c1c[nH]cn1` [Compound 144, N-((1s,4s)-4-((7-morpholino-1,6-naphthyridin-5-yl)oxy)cyclohexyl)-1H-imidazole-4-carboxamide], for which the concentration for half-maximal inhibition (IC50) at DNA-PK was 0.5 to 1 nM; in experiment [1], less than 100 nM.

Take `CS(=O)(=O)Nc1cnc2cc(N3CCOCC3)nc(O[C@H]3CC[C@@H](n4ccnc4)CC3)c2c1` [Compound 161, N-(5-(((1s,4s)-4-(1H-imidazol-1-yl)cyclohexyl)oxy)-7-morpholino-1,6-naphthyridin-3-yl)methanesulfonamide]: the values for the IC50 (on DNA-PK; in experiment [1]) were less than 0.5 nM and 100 to 1000 nM, respectively.

Turning to `CS(=O)(=O)Nc1cnc2cc(N3CCOCC3)nc(O[C@H]3CC[C@@H](Nc4ncccn4)CC3)c2c1` [Compound 185, N-(7-morpholino-5-(((1s,4s)-4-(pyrimidin-2-ylamino)cyclohexyl)oxy)-1,6-naphthyridin-3-yl)methanesulfonamide], the IC50 was less than 0.5 nM at DNA-PK and less than 100 nM in experiment [1].

On to `COc1cnc(N[C@H]2CC[C@@H](Oc3nc(N4CCOCC4)cc4ncc(NS(C)(=O)=O)cc34)CC2)nc1` [Compound 203, N-(5-(((1s,4s)-4-((5-methoxypyrimidin-2-yl)amino)cyclohexyl)oxy)-7-morpholino-1,6-naphthyridin-3-yl)methanesulfonamide], for which the figures for the IC50 (at DNA-PK; in experiment [1]) were less than 0.5 nM and less than 100 nM, respectively.

As for `CS(=O)(=O)Nc1cnc2cc(N3CCOCC3)nc(O[C@H]3CC[C@@H](NC(=O)c4ncco4)CC3)c2c1` [Compound 205, N-((1s,4s)-4-((3-(methylsulfonamido)-7-morpholino-1,6-naphthyridin-5-yl)oxy)cyclohexyl)oxazole-2-carboxamide], the IC50 at DNA-PK is 0.5 to 1 nM; in experiment [1] it was less than 100 nM.
